# Key:
# corn = experiment: Test B pre/postemergence corn; format: in vivo, Zea mays; details: for Corn plant response rating: scale of 0 to 10 where 0 is no effect and 10 is complete control
# Summary of the method: (§1)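 Test chemicals in a non-phytotoxic solvent mixture with surfactant were sprayed preemergence onto planted seeds and postemergence onto plants 2 to 18 cm tall (1- to 4-leaf stage). After twelve to sixteen days in a greenhouse, injury was visually rated against untreated controls from 0 (no effect) to 10 (complete control).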
# bamyardgrass = experiment: Test B flood test barnyardgrass; format: in vivo, Echinochloa crus-galli
# Summary of the method: (§2)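 Read-out is a visual response score from 0 (no effect) to 10 (complete control), assigned by comparison with untreated controls. Treatment was applied at the 2-leaf stage, and plants stayed in the greenhouse for twelve to sixteen days before scoring.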
# crabgrass = experiment: Test B pre/postemergence crabgrass; format: in vivo, Digitaria sanguinalis; details: for Crabgrass plant response rating: scale of 0 to 10 where 0 is no effect and 10 is complete control
# Summary of the method: as §1
# cocklebur = experiment: Test B pre/postemergence cocklebur; format: in vivo, Xanthium strumarium; details: for Cocklebur plant response rating: scale of 0 to 10 where 0 is no effect and 10 is complete control
# Summary of the method: as §1
# surinam grass = experiment: Test B pre/postemergence surinam grass; format: in vivo, Brachiaria decumbens
# Summary of the method: as §1
# rape = experiment: Test B pre/postemergence rape; format: in vivo, Brassica napus; details: for Rape plant response rating: scale of 0 to 10 where 0 is no effect and 10 is complete control
# Summary of the method: as §1
# rice = experiment: Test B flood test rice; format: in vivo, Oryza sativa
# Summary of the method: as §2
# smallflower flatsedge = experiment: Test B flood test smallflower flatsedge; format: in vivo, Cyperus difformis
# Summary of the method: as §2
# duck salad = experiment: Test B flood test duck salad; format: in vivo, Heteranthera limosa
# Summary of the method: as §2
# sugar beet = experiment: Test B pre/postemergence sugar beet; format: in vivo, Beta vulgaris; details: for Sugarbeets plant response rating: scale of 0 to 10 where 0 is no effect and 10 is complete control
# Summary of the method: as §1
# wild oat = experiment: Test B pre/postemergence wild oat; format: in vivo, Avena fatua; details: for Wild oats plant response rating: scale of 0 to 10 where 0 is no effect and 10 is complete control
# Summary of the method: as §1
# soybean = experiment: Test B pre/postemergence soybean; format: in vivo, Glycine max; details: for Soybean plant response rating: scale of 0 to 10 where 0 is no effect and 10 is complete control
# Summary of the method: as §1
# giant foxtail = experiment: Test B pre/postemergence giant foxtail; format: in vivo, Setaria faberii; details: for Giant foxtail plant response rating: scale of 0 to 10 where 0 is no effect and 10 is complete control
# Summary of the method: as §1
# purple nutsedge = experiment: Test B pre/postemergence purple nutsedge; format: in vivo, Cyperus rotundus; details: for Nutsedge plant response rating: scale of 0 to 10 where 0 is no effect and 10 is complete control
# Summary of the method: as §1
# morningglory = experiment: Test B pre/postemergence morningglory; format: in vivo, Ipomoea hederacea; details: for Morningglory plant response rating: scale of 0 to 10 where 0 is no effect and 10 is complete control
# Summary of the method: as §1
# pigweed = experiment: Test B pre/postemergence pigweed; format: in vivo, Amaranthus retroflexus; details: for Redroot pigweed plant response rating: scale of 0 to 10 where 0 is no effect and 10 is complete control
# Summary of the method: as §1
# [1] = Postemergence, Rate 125 g/ha, scale 0 to 10, 0 is no effect, 10 is complete control
# [2] = Preemergence, Rate 62 g/ha, scale 0 to 10 (0 no effect, 10 complete control)
# [3] = Rate 500 g/ha, Postemergence, scale 0 to 10, 0 no effect, 10 complete control
# [4] = Postemergence (flood test), Rate 125 g/ha, scale 0 to 10, 0 is no effect, 10 is complete control
# [5] = Rate 62 g/ha, Postemergence (flood test species), scale of 0 to 10 where 0 is no effect and 10 is complete control
# [6] = Rate 500 g/ha, listed under Postemergence (flood test species), scale 0 to 10, 0 no effect, 10 complete control
smiles,measurement,setting,value
COCC(C)n1c(=O)on(C(=O)N(c2ccc(F)cc2F)C(C)C)c1=O (centres unmarked) [Compound 357],"Plant response rating, Corn",corn; [1],0
same,"Plant response rating, Corn",corn; [2],0
same,Corn plant response rating (0 to 10 scale),"corn; Preemergence, Rate 125 g/ha",0
same,Corn plant response rating,"corn; Preemergence, Rate 250 g/ha",6
same,Corn plant response rating,"corn; Preemergence, Rate 500 g/ha",9
same,Corn plant response rating,"corn; Rate 62 g/ha, Postemergence",0
same,"Plant response rating, Corn",corn; [3],3
same,"Plant response rating, Barnyardgrass",bamyardgrass; [4],2
same,Barnyardgrass plant response rating,bamyardgrass; [5],0
same,"Plant response rating, Barnyardgrass","bamyardgrass; Rate 250 g/ha, Postemergence (flood test species), scale of 0 to 10 where 0 is no effect and 10 is complete control",4
same,"Plant response rating, Barnyardgrass",bamyardgrass; [6],6
same,"Plant response rating, Crabgrass",crabgrass; [1],2
same,"Plant response rating, Crabgrass",crabgrass; [2],9
same,Crabgrass plant response rating (0 to 10 scale),"crabgrass; Preemergence, Rate 125 g/ha",9
same,Crabgrass plant response rating,"crabgrass; Preemergence, Rate 250 g/ha",9
same,Crabgrass plant response rating,"crabgrass; Preemergence, Rate 500 g/ha",10
same,Crabgrass plant response rating,"crabgrass; Rate 62 g/ha, Postemergence",2
same,"Plant response rating, Crabgrass",crabgrass; [3],5
same,"Plant response rating, Cocklebur",cocklebur; [1],0
same,"Plant response rating, Cocklebur",cocklebur; [2],0
same,Cocklebur plant response rating (0 to 10 scale),"cocklebur; Preemergence, Rate 125 g/ha",0
same,Cocklebur plant response rating,"cocklebur; Preemergence, Rate 250 g/ha",0
same,Cocklebur plant response rating,"cocklebur; Preemergence, Rate 500 g/ha",0
same,Cocklebur plant response rating,"cocklebur; Rate 62 g/ha, Postemergence",0
same,"Plant response rating, Cocklebur",cocklebur; [3],2
same,"Plant response rating, B. signalgrass",surinam grass; [1],0
same,"Plant response rating, B. signalgrass",surinam grass; [2],1
same,"B. signalgrass plant response rating (0 to 10 scale, 0 is no effect, 10 is complete control)","surinam grass; Preemergence, Rate 125 g/ha",3
same,B. signalgrass plant response rating,"surinam grass; Preemergence, Rate 250 g/ha, scale of 0 to 10 where 0 is no effect and 10 is complete control",6
same,B. signalgrass plant response rating,"surinam grass; Preemergence, Rate 500 g/ha, scale of 0 to 10 where 0 is no effect and 10 is complete control",7
same,B. signalgrass plant response rating,"surinam grass; Rate 62 g/ha, Postemergence, scale of 0 to 10 where 0 is no effect and 10 is complete control",0
same,"Plant response rating, B. signalgrass","surinam grass; Rate 250 g/ha, Postemergence, scale of 0 to 10 where 0 is no effect and 10 is complete control",4
same,"Plant response rating, B. signalgrass",surinam grass; [3],7
same,"Plant response rating, Rape",rape; [1],0
same,"Plant response rating, Rape",rape; [2],0
same,Rape plant response rating (0 to 10 scale),"rape; Preemergence, Rate 125 g/ha",2
same,Rape plant response rating,"rape; Preemergence, Rate 250 g/ha",8
same,Rape plant response rating,"rape; Preemergence, Rate 500 g/ha",8
same,Rape plant response rating,"rape; Rate 62 g/ha, Postemergence",0
same,"Plant response rating, Rape",rape; [3],4
same,"Plant response rating, Rice",rice; [4],0
same,Rice plant response rating,rice; [5],0
same,"Plant response rating, Rice",rice; [6],2
same,"Plant response rating, S. Flatsedge",smallflower flatsedge; [4],0
same,S. Flatsedge plant response rating,smallflower flatsedge; [5],0
same,"Plant response rating, S. Flatsedge",smallflower flatsedge; [6],8
same,"Plant response rating, Ducksalad",duck salad; [4],0
same,Ducksalad plant response rating,duck salad; [5],0
same,"Plant response rating, Ducksalad",duck salad; [6],2
same,"Plant response rating, Sugarbeets",sugar beet; [1],0
same,"Plant response rating, Sugarbeets",sugar beet; [2],2
same,Sugarbeets plant response rating (0 to 10 scale),"sugar beet; Preemergence, Rate 125 g/ha",3
same,Sugarbeets plant response rating,"sugar beet; Preemergence, Rate 250 g/ha",5
same,Sugarbeets plant response rating,"sugar beet; Preemergence, Rate 500 g/ha",6
same,Sugarbeets plant response rating,"sugar beet; Rate 62 g/ha, Postemergence",0
same,"Plant response rating, Sugarbeets",sugar beet; [3],0
same,"Plant response rating, Wild oats",wild oat; [1],4
same,"Plant response rating, Wild oats",wild oat; [2],9
same,Wild oats plant response rating (0 to 10 scale),"wild oat; Preemergence, Rate 125 g/ha",10
same,Wild oats plant response rating,"wild oat; Preemergence, Rate 250 g/ha",10
same,Wild oats plant response rating,"wild oat; Preemergence, Rate 500 g/ha",10
same,Wild oats plant response rating,"wild oat; Rate 62 g/ha, Postemergence",3
same,"Plant response rating, Wild oats",wild oat; [3],6
same,"Plant response rating, Soybean",soybean; [1],2
same,"Plant response rating, Soybean",soybean; [2],0
same,Soybean plant response rating (0 to 10 scale),"soybean; Preemergence, Rate 125 g/ha",0
same,Soybean plant response rating,"soybean; Preemergence, Rate 250 g/ha",0
same,Soybean plant response rating,"soybean; Preemergence, Rate 500 g/ha",0
same,Soybean plant response rating,"soybean; Rate 62 g/ha, Postemergence",2
same,"Plant response rating, Soybean",soybean; [3],3
same,"Plant response rating, Giant foxtail",giant foxtail; [1],8
same,"Plant response rating, Giant foxtail",giant foxtail; [2],10
same,Giant foxtail plant response rating (0 to 10 scale),"giant foxtail; Preemergence, Rate 125 g/ha",10
same,Giant foxtail plant response rating,"giant foxtail; Preemergence, Rate 250 g/ha",10
same,Giant foxtail plant response rating,"giant foxtail; Preemergence, Rate 500 g/ha",10
same,Giant foxtail plant response rating,"giant foxtail; Rate 62 g/ha, Postemergence",8
same,"Plant response rating, Giant foxtail",giant foxtail; [3],9
same,"Plant response rating, Nutsedge",purple nutsedge; [1],0
same,"Plant response rating, Nutsedge",purple nutsedge; [2],0
same,Nutsedge plant response rating (0 to 10 scale),"purple nutsedge; Preemergence, Rate 125 g/ha",0
same,Nutsedge plant response rating,"purple nutsedge; Preemergence, Rate 250 g/ha",0
same,Nutsedge plant response rating,"purple nutsedge; Preemergence, Rate 500 g/ha",6
same,Nutsedge plant response rating,"purple nutsedge; Rate 62 g/ha, Postemergence",0
same,"Plant response rating, Nutsedge",purple nutsedge; [3],2
same,"Plant response rating, Morningglory",morningglory; [1],2
same,"Plant response rating, Morningglory",morningglory; [2],0
same,Morningglory plant response rating (0 to 10 scale),"morningglory; Preemergence, Rate 125 g/ha",2
same,Morningglory plant response rating,"morningglory; Preemergence, Rate 250 g/ha",2
same,Morningglory plant response rating,"morningglory; Preemergence, Rate 500 g/ha",7
same,Morningglory plant response rating,"morningglory; Rate 62 g/ha, Postemergence",2
same,"Plant response rating, Morningglory",morningglory; [3],8
same,"Plant response rating, Redroot pigweed",pigweed; [1],0
same,"Plant response rating, Redroot pigweed",pigweed; [2],7
same,Redroot pigweed plant response rating (0 to 10 scale),"pigweed; Preemergence, Rate 125 g/ha",10
same,Redroot pigweed plant response rating,"pigweed; Preemergence, Rate 250 g/ha",10
same,Redroot pigweed plant response rating,"pigweed; Preemergence, Rate 500 g/ha",10
same,Redroot pigweed plant response rating,"pigweed; Rate 62 g/ha, Postemergence",0
same,"Plant response rating, Redroot pigweed",pigweed; [3],8
